This is an account of results in publication PMC6063448, “Antimicrobial activity of linear lipopeptides derived from BP100 towards plant pathogens” (PLoS ONE, 2018).

In the data set the test system is T1, proteinase K.
T1 construct: purchased Sigma-Aldrich Corporation, Spain
In words: Susceptibility to protease degradation. The data set is classed as in vitro ADME. Particulars: proteinase K (isolated protease) in TRIS buffer; 50 μg/mL peptide, 1 μg/mL proteinase K, 100 mM TRIS buffer pH 7.6, 25°C, 60 min; decrease of HPLC peak area (220 nm); read-out: Digestion with proteinase K (percentage of degraded peptide). As to the method: Digestion of BP100 and of 16 selected lipopeptides was carried out by treating 50 μg/mL peptide with 1 μg/mL proteinase K (Sigma-Aldrich Corporation, Spain) in 100 mM TRIS buffer, pH 7.6, at 25°C. The peptide cleavage after 60 min was determined by HPLC using a Kromasil (4.6 × 40 mm; 3 μm particle size) C18 reverse-phase column. Linear gradients of 0.1% aqueous TFA and 0.1% TFA in CH3CN were run from 0.98:0.02 to 0:1 over 12 min with UV detection at 220 nm. Digestion was estimated as the percentage of degraded lipopeptide calculated from the decrease of the HPLC peak area of the native peptide.
Turning to `CC[C@H](C)[C@H](NC(=O)[C@H](CCCCN)NC(=O)[C@H](CCCCN)NC(=O)[C@H](Cc1ccccc1)NC(=O)[C@H](CC(C)C)NC(=O)[C@H](CCCCN)NC(=O)[C@@H](N)CCCCN)C(=O)N[C@@H](CC(C)C)C(=O)N[C@@H](CCCCN)C(=O)N[C@@H](Cc1ccc(O)cc1)C(=O)N[C@@H](CC(C)C)C(N)=O` [BP100, H-Lys-Lys-Leu-Phe-Lys-Lys-Ile-Leu-Lys-Tyr-Leu-NH2], the metabolised at 1 h, 50 μg/mL was found to be 24%.

Consider `CCCCCC(=O)NCCCC[C@H](NC(=O)[C@H](Cc1ccc(O)cc1)NC(=O)[C@H](CCCCN)NC(=O)[C@H](CC(C)C)NC(=O)[C@@H](NC(=O)[C@H](CCCCN)NC(=O)[C@H](CCCCN)NC(=O)[C@H](Cc1ccccc1)NC(=O)[C@H](CC(C)C)NC(=O)[C@H](CCCCN)NC(=O)[C@H](CCCCN)NC(C)=O)[C@@H](C)CC)C(N)=O` [BP378, Ac-KKLFKKILKYK(COC5H11)-NH2], for which the metabolised at 1 h, 50 μg/mL is 45%.

On to `CCCC(=O)NCCCC[C@H](NC(=O)[C@H](CCCCN)NC(C)=O)C(=O)N[C@@H](CC(C)C)C(=O)N[C@@H](Cc1ccccc1)C(=O)N[C@@H](CCCCN)C(=O)N[C@@H](CCCCN)C(=O)N[C@H](C(=O)N[C@@H](CC(C)C)C(=O)N[C@@H](CCCCN)C(=O)N[C@@H](Cc1ccc(O)cc1)C(=O)N[C@@H](CC(C)C)C(N)=O)[C@@H](C)CC` [BP381, Ac-KK(COC3H7)LFKKILKYL-NH2], for which the metabolised at 1 h, 50 μg/mL came out at 53%.

For the compound `CCCC(=O)NCCCC[C@H](NC(=O)[C@@H](NC(=O)[C@H](CCCCN)NC(=O)[C@H](CCCCN)NC(=O)[C@H](Cc1ccccc1)NC(=O)[C@H](CC(C)C)NC(=O)[C@H](CCCCN)NC(=O)[C@H](CCCCN)NC(C)=O)[C@@H](C)CC)C(=O)N[C@@H](CCCCN)C(=O)N[C@@H](Cc1ccc(O)cc1)C(=O)N[C@@H](CC(C)C)C(N)=O` [BP387, Ac-KKLFKKIK(COC3H7)KYL-NH2], the metabolised at 1 h, 50 μg/mL was 15%.

Regarding `CCCC(=O)NCCCC[C@H](NC(=O)[C@H](CCCCN)NC(=O)[C@H](CC(C)C)NC(=O)[C@@H](NC(=O)[C@H](CCCCN)NC(=O)[C@H](CCCCN)NC(=O)[C@H](Cc1ccccc1)NC(=O)[C@H](CC(C)C)NC(=O)[C@H](CCCCN)NC(=O)[C@H](CCCCN)NC(C)=O)[C@@H](C)CC)C(=O)N[C@@H](CC(C)C)C(N)=O` [BP389, Ac-KKLFKKILKK(COC3H7)L-NH2], the metabolised at 1 h, 50 μg/mL amounted to 29%.
